Assay results: ChEMBL document CHEMBL5233242, “Dihydrofolate reductase inhibitors for use as antimicrobial agents” (Eur J Med Chem, 2020)
Converted amounts (≈) assume the structure as drawn.

Tests used:
[1] = system: Mycobacterium tuberculosis; assay: Antibacterial activity against extensively drug-resistant Mycobacterium tuberculosis 5; assay type: functional
[2] = system: Mycobacterium tuberculosis; assay: Antibacterial activity against multi drug-resistant Mycobacterium tuberculosis 365; assay type: functional

SMILES: CCc1nc(N)nc(N)c1C#CCc1cc(OC)cc(-c2ccc(C(=O)O)cc2)c1
- MIC [1]: 4.97 µM (≈ 2 µg/mL)
- MIC [2]: 0.311 µM (≈ 0.125 µg/mL)

SMILES: CCc1nc(N)nc(N)c1C#C[C@H](C)c1cc(OC)cc(-c2ccc(C(=O)O)cc2)c1
- MIC [1]: 0.6 µM (≈ 0.25 µg/mL)
- MIC [2]: < 0.072 µM
